Values quoted from earlier work as cited in patent publication US20240199754A1 (VANCOUVER BIOTECH LTD., priority 2021, published 2024).
Square brackets hold non-standard residues; d marks the D form. Peptide text beside a SMILES is read from it. dPhe(4-Cl) = N[C@H](Cc1ccc(Cl)cc1)C(=O)O; d2Nal = N[C@H](Cc1ccc2ccccc2c1)C(=O)O; dCit = NC(=O)NCCC[C@@H](N)C(=O)O; d3Pal = N[C@H](Cc1cccnc1)C(=O)O

Conditions: cited from earlier work

CC(=O)N[C@H](Cc1ccc2ccccc2c1)C(=O)N[C@H](Cc1ccc(Cl)cc1)C(=O)N[C@H](Cc1cccnc1)C(=O)N[C@@H](CO)C(=O)N[C@@H](Cc1ccc(O)cc1)C(=O)N[C@H](CCCNC(N)=O)C(=O)N[C@@H](CC(C)C)C(=O)N[C@@H](CCCNC(=N)N)C(=O)N1CCC[C@H]1C(=O)N[C@H](C)C(N)=O [Cetrorelix, reference compound] (Ac-[d2Nal][dPhe(4-Cl)][d3Pal]SY[dCit]LRP[dA]-NH2)
circulation half life: 10 to 63 h
